Common to all, as to type: functional
The test system of one experiment is Cryptococcus neoformans. Kind of experiment: Antifungal activity against Cryptococcus neoformans LA314 assessed as reduction in fungal cell growth incubated for 48 hrs by broth microdilution method. The note with it: LA314, 48 h. In general terms: Broth dilution looks for growth in wells or tubes with falling amounts of substance.
In a further experiment the test system is Nakaseomyces glabratus. The experiment can be described thus: Antifungal activity against Candida glabrata assessed as reduction in fungal cell growth incubated for 48 hrs by broth microdilution method.
Another experiment relates to Candida parapsilosis. The experiment can be described thus: Antifungal activity against Candida parapsilosis ATCC 22019 assessed as reduction in fungal cell growth incubated for 48 hrs by broth microdilution method. The note with it: Lodderomyces parapsilosis, ATCC 22019, 48 h.
The subject of the next experiment is Pichia kudriavzevii. Kind of experiment: Antifungal activity against Candida krusei assessed as reduction in fungal cell growth incubated for 48 hrs by broth microdilution method.
A further experiment relates to Candida albicans. Kind of experiment: Antifungal activity against Candida albicans assessed as reduction in fungal cell growth incubated for 48 hrs by broth microdilution method.
The subject of the next experiment is Candida tropicalis. The experiment can be described thus: Antifungal activity against Candida tropicalis assessed as reduction in fungal cell growth incubated for 48 hrs by broth microdilution method.
A further experiment has as its system Aspergillus niger. Kind of experiment: Antifungal activity against Aspergillus niger assessed as reduction in fungal cell growth incubated for 72 hrs by broth microdilution method.

Values after ≈ are worked out from the molar mass of the structure shown.

As to `CC(n1nnnc1CCN1CCN(c2cccc(Cl)c2)CC1)C(O)(Cn1cncn1)c1ccc(F)cc1F` (stereo not drawn), the MIC in the experiment with Cryptococcus neoformans, with Nakaseomyces glabratus, with Candida parapsilosis, with Pichia kudriavzevii, in the experiment on Candida albicans and with Candida tropicalis was 0.5 to 16 µg/mL (≈ 0.919 to 29.4 µM) throughout. For the same compound, the MIC with Aspergillus niger lay within 0.5 to 16 µg/mL (≈ 0.919 to 29.4 µM).
For `COc1ccc(N2CCN(CCc3nnn(CC(O)(Cn4cncn4)c4ccc(F)cc4F)n3)CC2)cc1` (stereo not drawn), the MIC with Cryptococcus neoformans, in the experiment on Nakaseomyces glabratus, in the experiment on Candida parapsilosis, with Pichia kudriavzevii, in the experiment on Candida albicans and in the experiment with Candida tropicalis was 1 to 16 µg/mL (≈ 1.9 to 30.4 µM) in each case. The MIC with Aspergillus niger lay in the range of 1 to 16 µg/mL (≈ 1.9 to 30.4 µM).
Turning to `C[C@H](n1nnnc1CCN1CCN(c2cccc(Cl)c2)CC1)[C@](O)(Cn1cncn1)c1ccc(F)cc1F`, the MIC with Cryptococcus neoformans, in the experiment on Nakaseomyces glabratus, in the experiment with Candida parapsilosis, in the experiment with Pichia kudriavzevii, in the experiment on Candida albicans and in the experiment on Candida tropicalis was 0.12 to 16 µg/mL (≈ 0.221 to 29.4 µM) each time. The MIC in the experiment on Aspergillus niger is 0.12 to 16 µg/mL (≈ 0.221 to 29.4 µM).
In the case of `COc1ccc(N2CCN(CCc3nnn(C(C)C(O)(Cn4cncn4)c4ccc(F)cc4F)n3)CC2)cc1` (stereo not drawn), the MIC in the experiment with Cryptococcus neoformans, in the experiment with Nakaseomyces glabratus, in the experiment with Candida parapsilosis, with Pichia kudriavzevii, in the experiment with Candida albicans and with Candida tropicalis was 1 to 16 µg/mL (≈ 1.85 to 29.7 µM) throughout. Moreover, the MIC in the experiment with Aspergillus niger fell in the range of 1 to 16 µg/mL (≈ 1.85 to 29.7 µM).
`CC(n1nnc(CCN2CCN(c3ccccn3)CC2)n1)C(O)(Cn1cncn1)c1ccc(F)cc1F` (stereo not drawn): the MIC with Cryptococcus neoformans, in the experiment with Nakaseomyces glabratus, with Candida parapsilosis, in the experiment on Pichia kudriavzevii, in the experiment with Candida albicans and in the experiment with Candida tropicalis was 1 to 16 µg/mL (≈ 1.96 to 31.3 µM) each time. Also, the MIC with Aspergillus niger lay within 1 to 16 µg/mL (≈ 1.96 to 31.3 µM).
With `C[C@H](n1nnnc1CCN1CCN(c2ccccn2)CC1)[C@](O)(Cn1cncn1)c1ccc(F)cc1F`, the MIC in the experiment on Cryptococcus neoformans, with Nakaseomyces glabratus, with Candida parapsilosis, with Pichia kudriavzevii, in the experiment with Candida albicans and in the experiment with Candida tropicalis was 0.12 to 16 µg/mL (≈ 0.235 to 31.3 µM) each time. Moreover, the minimum inhibitory concentration (MIC) with Aspergillus niger lay within 0.12 to 16 µg/mL (≈ 0.235 to 31.3 µM).
Consider `CCCCOc1ccccc1N1CCN(CCc2nnnn2CC(O)(Cn2cncn2)c2ccc(F)cc2F)CC1` (stereo not drawn), for which the MIC with Cryptococcus neoformans, in the experiment on Nakaseomyces glabratus, in the experiment with Candida parapsilosis, in the experiment with Pichia kudriavzevii, in the experiment on Candida albicans and in the experiment with Candida tropicalis was 0.5 to 16 µg/mL (≈ 0.881 to 28.2 µM) each time. Further, in the experiment on Aspergillus niger, the MIC lay in the range of 0.5 to 16 µg/mL (≈ 0.881 to 28.2 µM).
Regarding `COc1ccccc1N1CCN(CCc2nnnn2CC(O)(Cn2cncn2)c2ccc(F)cc2F)CC1` (stereo not drawn), the MIC with Cryptococcus neoformans, in the experiment with Nakaseomyces glabratus, with Candida parapsilosis, with Pichia kudriavzevii, with Candida albicans and in the experiment on Candida tropicalis was 0.5 to 16 µg/mL (≈ 0.951 to 30.4 µM) each time. In the experiment with Aspergillus niger, the MIC was 0.5 to 16 µg/mL (≈ 0.951 to 30.4 µM).
Regarding `OC(Cn1cncn1)(Cn1nnnc1CCN1CCN(c2c(Cl)cccc2Cl)CC1)c1ccc(F)cc1F` (stereo not drawn), the MIC with Cryptococcus neoformans, in the experiment with Nakaseomyces glabratus, in the experiment on Candida parapsilosis, in the experiment on Pichia kudriavzevii, in the experiment with Candida albicans and in the experiment on Candida tropicalis was 0.5 to 16 µg/mL (≈ 0.886 to 28.3 µM) throughout. Besides, the MIC in the experiment on Aspergillus niger was in the range of 0.5 to 16 µg/mL (≈ 0.886 to 28.3 µM).
Regarding `C[C@H](n1nnc(CCN2CCN(c3ccc(Cl)cc3)CC2)n1)[C@](O)(Cn1cncn1)c1ccc(F)cc1F`, the MIC in the experiment on Cryptococcus neoformans, in the experiment on Nakaseomyces glabratus, in the experiment on Candida parapsilosis, in the experiment on Pichia kudriavzevii, in the experiment with Candida albicans and with Candida tropicalis was 0.25 to 16 µg/mL (≈ 0.46 to 29.4 µM) throughout. For the same compound, the MIC with Aspergillus niger lay within 0.25 to 16 µg/mL (≈ 0.46 to 29.4 µM).
In the case of `CC(n1nnc(CCN2CCN(c3c(Cl)cccc3Cl)CC2)n1)C(O)(Cn1cncn1)c1ccc(F)cc1F` (stereo not drawn), the MIC in the experiment on Cryptococcus neoformans, with Nakaseomyces glabratus, with Candida parapsilosis, with Pichia kudriavzevii, in the experiment on Candida albicans and in the experiment with Candida tropicalis was 1 to 16 µg/mL (≈ 1.73 to 27.7 µM) throughout. The MIC in the experiment with Aspergillus niger was in the range of 1 to 16 µg/mL (≈ 1.73 to 27.7 µM).
As for `COc1ccccc1N1CCN(CCc2nnnn2[C@@H](C)[C@](O)(Cn2cncn2)c2ccc(F)cc2F)CC1`, the MIC in the experiment with Cryptococcus neoformans, in the experiment with Nakaseomyces glabratus, in the experiment with Candida parapsilosis, in the experiment on Pichia kudriavzevii, in the experiment with Candida albicans and in the experiment on Candida tropicalis was 0.12 to 16 µg/mL (≈ 0.222 to 29.7 µM) throughout. Moreover, in the experiment with Aspergillus niger, the MIC is 0.12 to 16 µg/mL (≈ 0.222 to 29.7 µM).
For `OC(Cn1cncn1)(Cn1nnc(CCN2CCN(c3ccc(Cl)cc3)CC2)n1)c1ccc(F)cc1F` (stereo not drawn), the MIC in the experiment on Cryptococcus neoformans, in the experiment with Nakaseomyces glabratus, with Candida parapsilosis, with Pichia kudriavzevii, in the experiment on Candida albicans and with Candida tropicalis was 1 to 16 µg/mL (≈ 1.89 to 30.2 µM) each time. For the same compound, the MIC with Aspergillus niger fell in the range of 1 to 16 µg/mL (≈ 1.89 to 30.2 µM).
Consider `CC(n1nnnc1CCN1CCN(c2c(Cl)cccc2Cl)CC1)C(O)(Cn1cncn1)c1ccc(F)cc1F` (stereo not drawn), for which the MIC in the experiment on Cryptococcus neoformans, with Nakaseomyces glabratus, in the experiment on Candida parapsilosis, with Pichia kudriavzevii, in the experiment with Candida albicans and with Candida tropicalis was 0.5 to 16 µg/mL (≈ 0.864 to 27.7 µM) each time. In the experiment on Aspergillus niger, the MIC was 0.5 to 16 µg/mL (≈ 0.864 to 27.7 µM).

As usually defined, the MIC is the smallest concentration in the dilution series that meets the test's criterion for growth inhibition.
